Measurements as given in patent US20110190309A1, “PHARMACEUTICAL PRODUCT COMPRISING A […] RECEPTOR ANTAGONIST AND A Beta2-ADRENOCEPTOR AGONIST” (priority 2008, published 2011).
Where a name gives a salt, the structure may show the parent alone.

Columns and labels:
β2 = target: T1, β2 (Homo sapiens, UniProt P07550); assay: Adrenergic β2 mediated cAMP production in H292 cells (AlphaScreen); type: cell-based; details: Intrinsic Activity as a fraction relative to the maximum activity of formoterol
T1 construct: endogenous in cells; host or cells: H292 cells
T1 sequence (P07550 whole entry): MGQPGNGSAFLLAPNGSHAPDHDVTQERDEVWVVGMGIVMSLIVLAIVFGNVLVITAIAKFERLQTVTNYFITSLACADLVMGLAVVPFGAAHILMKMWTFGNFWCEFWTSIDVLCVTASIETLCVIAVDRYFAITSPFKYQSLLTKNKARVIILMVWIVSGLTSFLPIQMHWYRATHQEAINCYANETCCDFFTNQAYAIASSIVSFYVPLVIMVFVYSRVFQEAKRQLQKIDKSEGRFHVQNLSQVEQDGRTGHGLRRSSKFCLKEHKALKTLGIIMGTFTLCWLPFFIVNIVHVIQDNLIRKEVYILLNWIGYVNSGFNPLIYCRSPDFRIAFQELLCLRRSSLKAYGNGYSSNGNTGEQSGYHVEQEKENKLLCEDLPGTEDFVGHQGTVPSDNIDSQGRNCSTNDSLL
Method: H292 cells were grown in 225 cm2 flasks incubator at 37° C., 5% CO2 in RPMI medium containing, 10% (v/v) FBS (foetal bovine serum) and 2 mM L-glutamine.
Adherent H292 cells were removed from tissue culture flasks by treatment with Accutase™ cell detachment solution for 15 minutes. Flasks were incubated for 15 minutes in a humidified incubator at 37° C., 5% CO2. Detached cells were re-suspended in RPMI media (containing 10% (v/v) FBS and 2 mM L-glutamine) at 0.05×10^6 cells per mL. 5000 cells in 100 μL were added to each well of a tissue-culture-treated 96-well plate and the cells incubated overnight in a humidified incubator at 37° C., 5% CO2. The culture media was removed and cells were washed twice with 100 μL assay buffer and replaced with 50 μL assay buffer (HBSS solution containing 10 mM HEPES pH7.4 and 5 mM glucose). Cells were rested at room temperature for 20 minutes after which time 25 μL of rolipram (1.2 mM made up in assay buffer containing 2.4% (v/v) dimethylsulphoxide) was added. Cells were incubated with rolipram for 10 minutes after which time Compound A was added and the cells were incubated for 60 minutes at room temperature. The final rolipram concentration in the assay was 300 μM and final vehicle concentration was 1.6% (v/v) dimethylsulphoxide. The reaction was stopped by removing supernatants, washing once with 100 μL assay buffer and replacing with 50 μL lysis buffer. The cell monolayer was frozen at −80° C. for 30 minutes (or overnight).
The concentration of cAMP (cyclic adenosine monophosphate) in the cell lysate was determined using AlphaScreen™ methodology. […] The AlphaScreen™ signal was measured using an EnVision spectrophotometer (Perkin-Elmer Inc.) with the recommended manufacturer's settings. cAMP concentrations were determined by reference to a calibration curve determined in the same experiment using standard cAMP concentrations. […] Intrinsic Activity was expressed as a fraction relative to the maximum activity determined for formoterol in each experiment.

guinea pig trachea = assay: Bronchodilator activity in the guinea pig isolated tracheal ring preparation; details: 10 nM; methacholine 1 μM; 60 min; mean±s.e.mean
Method: Guinea pigs (300-500 g) were killed by cervical dislocation and the trachea was isolated. The trachea was cut into segments 2-3 cartilage rings in width and suspended in 10 ml organ baths in modified Krebs' solution (mM; NaCl, 90; NaHCO3, 45; KCl, 5; MgSO4.7H2O, 0.5; Na2HPO4.2H2O, 1; CaCl2, 2.25; glucose, 10; pH 7.4 gassed with 5% CO2, 95% O2 at 37° C.). The tracheal rings were attached to an isometric force transducer for the measurement of isometric tension. The tissues were washed and a force of 1 g was applied to each tissue. The rings were contracted with methacholine (1 μM). Once the contraction had reached a plateau, vehicle (0.01% DMSO in distilled H2O), indacaterol (10 nM), N-[2-(Diethylamino)ethyl]-N-(2-{[2-(4-hydroxy-2-oxo-2,3-dihydro-1,3-benzothiazol-7-yl)ethyl]amino}ethyl)-3-[2-(1-naphthyl)ethoxy]propanamide dihydrobromide (10 nM), N-Cyclohexyl-N^3-[2-(3-fluorophenyl)ethyl]-N-(2-{[2-(4-hydroxy-2-oxo-2,3-dihydro-1,3-benzothiazol-7-yl)ethyl]amino}ethyl)-(3-alaninamide di-D-mandelate salt (1 nM), (R)-3-(1-Phenyl-cycloheptanecarbonyloxy)-1-(pyridin-2-ylcarbamoylmethyl)-1-azonia-bicyclo[2.2.2]octane bromide (1 nM), a combination of (R)-3-(1-Phenyl-cycloheptanecarbonyloxy)-1-(pyridin-2-ylcarbamoylmethyl)-1-azonia-bicyclo[2.2.2]octane bromide (1 nM) and indacaterol (10 nM), a combination of N-[2-(Diethylamino)ethyl]-N-(2-{[2-(4-hydroxy-2-oxo-2,3-dihydro-1,3-benzothiazol-7-yl)ethyl]amino}ethyl)-3-[2-(1-naphthyl)ethoxy]propanamide dihydrobromide (10 nM) and (R)-3-(1-Phenyl-cycloheptanecarbonyloxy)-1-(pyridin-2-ylcarbamoylmethyl)-1-azonia-bicyclo[2.2.2]octane bromide (1 nM) and, or a combination of N-Cyclohexyl-N^3-[2-(3-fluorophenyl)ethyl]-N-(2-{[2-(4-hydroxy-2-oxo-2,3-dihydro-1,3-benzothiazol-7-yl)ethyl]amino}ethyl)-β-alaninamide di-D-mandelate salt (1 nM) and (R)-3-(1-Phenyl-cycloheptanecarbonyloxy)-1-(pyridin-2-ylcarbamoylmethyl)-1-azonia-bicyclo[2.2.2]octane bromide (1 nM) was added and the tissue left for 60 min. The tension was measured in each ring at 60 min following compound addition and was expressed as a % relaxation of the constriction to methacholine (1 μM) (mean±s.e.mean). Data were collected using the Chart 4 software (ADInstruments, Charlgrove, UK).

SMILES	β2 Int Act (β2)	percentage relaxation of the constriction to methacholine (guinea pig trachea)
CCN(CC)CCN(CCNCCc1ccc(O)c2[nH]c(=O)sc12)C(=O)CCOCCc1cccc(Cl)c1 [BA2, N-[2-(Diethylamino)ethyl]-N-(2-{[2-(4-hydroxy-2-oxo-2,3-dihydro-1,3-benzothiazol-7-yl)ethyl]amino}ethyl)-3-[2-(3-chlorophenyl)ethoxy]propanamide dihydrobromide]	0.7	
CCN(CC)CCN(CCNCCc1ccc(O)c2[nH]c(=O)sc12)C(=O)CCOCCc1cccc2ccccc12 [BA1, N-[2-(Diethylamino)ethyl]-N-(2-{[2-(4-hydroxy-2-oxo-2,3-dihydro-1,3-benzothiazol-7-yl)ethyl]amino}ethyl)-3-[2-(1-naphthyl)ethoxy]propanamide dihydrobromide]	0.8	18±11.2%
